Experimental data: PubChem BioAssay AID2060899 (Molecular Pharmacology Branch, DTP, NCI, 2025)
pIC50: −log10 of the molar value.

Tested on: 565726-208-R1-J5-PDC complex spheroids, growth inhibition
Assay: Anticancer human tumor 565726-208-R1-J5-PDC patient-derived pancreatic adenocarcinoma cell line growth inhibition [RAS]
Conditions: for pIC50: curve of first compound; for viability, T/C: stronger effect = lower value; active = viability on the fitted dose curve at most 10% of control; inactive = the rest
Excerpt: RAS pathway inhibitors in Combinations in Complex Spheroids
A high-throughput screen of multi-cell type tumor spheroids was designed to identify active combinations of RAS pathway inhibitors and targeted small molecules. Complex spheroids include a stromal component modeled by human endothelial cells (HUVEC) and fibroblasts modeled by human mesenchymal stem cells (MSCs). The concentration ranges selected for each drug and investigational agent were based upon clinically achievable concentrations if the clinical Cmax of the agent was known.
Compounds. The drugs and investigational agents: abemaciclib (NSC768073), cobimetinib (NSC768068), divarasib (GDC6063, NSC841802), docetaxel (NSC628503), GDC-1971 (RLY-1971, NSC841576), gemcitabine (NSC613327), inavolisib (NSC800729), ipatasertib (NSC767898), KB-0742 (NSC834161), MRTX-1133 (NSC836407), osimertinib (NSC779217), RMC-4630 (NSC839698), RMC-6236 (NSC851965), RMC-6291 (NSC852671), Ro-3306 (NSC812927), sapanisertib (NSC764658), SN-38 (NSC673596), staurosporine (NSC755774), SY5609 (NSC837396), and tovorafenib (DAY101, NSC766906), were obtained from the National Cancer Institute (NCI) Developmental Therapeutics Program Chemical Repository. The FDA-approved anticancer drug set is available from the NCI Developmental Therapeutics Program. […] The stock solutions were prepared in dimethyl sulfoxide (DMSO, Sigma-Aldrich, St. Louis, MO, cat. D2650) at 800-fold the tested concentration and stored at -70 degrees C prior to their use. All drugs and investigational agents were tested over a range starting from a high concentration at or near the clinical Cmax and decreasing in half-log increments. If the clinical Cmax for an agent had not been determined, the highest concentration tested was 10 microM.
Cell Culture. All cells were maintained in an incubator at 37 degrees C and 5% CO2 with 95% humidity. The PDC lines were cultured according to standard operating procedures established by the NCI PDMR. All PDCs were thawed and cultured in Matrigel-coated flasks prepared with a working solution of 1X Ham's F-12 nutrient mix, without supplementation (Invitrogen, Waltham, MA, cat. 11765054), 100 U/mL penicillin-streptomycin (Invitrogen, cat. 15140122), and 2.5% Matrigel (Corning Inc., Corning, NY, cat. 354248) for the first three passages. The 362531-283-R-J2-PDC and 782815-120-R-J1-PDC lines were cultured in 6C/Colon 1B media, which includes advanced DMEM/F-12 (Thermo Fisher Scientific, cat. 12634028), 10 mM HEPES (Thermo Fisher Scientific, cat. 15630080), 1X GlutaMAX supplement (Thermo Fisher Scientific, cat. 35050061), 0.1 mg/mL primocin (InvivoGen, San Diego, CA, cat. ant-pm-2), 10% defined fetal bovine serum, heat inactivated (HyClone Laboratories Inc., Logan, UT, cat. SH30070.03HI), 50% L-WRN conditioned media (ATCC, cat. CRL-3276), 1.25 mM N-Acetyl-L-cysteine (Sigma-Aldrich, cat. A9165), 10 mM nicotinamide (Sigma-Aldrich, cat. N0636), 1X B-27 supplement (Thermo Fisher Scientific, cat. 17504044), 1X N-2 supplement (Thermo Fisher Scientific, cat. 17502048), 50 ng/mL human EGF (Thermo Fisher Scientific, cat. PHG0311), and 10 microM Y-27632 dihydrochloride (Tocris Bioscience, cat. 1254). The K12877-001-R-J1-PDC line was cultured in 6I media, which includes all 6C/Colon 1B media plus 10 ng/mL human FGF-10 (PeproTech, cat. 100-26), 1 ng/mL human FGF-2 (PeproTech, cat. 100-18B), 1 µM prostaglandin E2 (Tocris Bioscience, cat. 2296), […] hydrocortisone (Sigma-Aldrich, cat. H4001), and […] bovine insulin (Sigma-Aldrich, cat. I6634). The K86415-001-R-J1-PDC line was cultured in 6D media, which includes all 6C/Colon 1B media components minus the L-WRN conditioned media. The 485176-168-R4-J1-PDC was cultured in PANC media, which includes all 6C/Colon 1B media plus 100 ng/mL human FGF-10 (PeproTech, cat. 100-26), 500 nM SB-431542 (Selleckchem, cat. S1067), and 10 nM gastrin (Tocris Bioscience, cat. 3006). […]
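Also: spheroids exposed to compounds for seven days before readout.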

CCc1c2c(nc3ccc(O)cc13)-c1cc3c(c(=O)n1C2)COC(=O)[C@]3(O)CC + CCn1c(-c2cccnc2C(C)OC)c2c3cc(ccc31)N1CCOC(CC(NC(=O)C(C(C)C)N(C)C(=O)C3(F)CCN(C(=O)C#CC(C)(C)N(C)C)CC3)C(=O)N3CCCC(N3)C(=O)OCC(C)(C)C2)C1
8.70: pIC50 (second compound 0.0949 µM)
8.63: pIC50 (second compound 0.000949 µM) | pIC50 (second compound 0.00949 µM)
8.79: pIC50 (second compound 0.3 µM)
active: viability, T/C (second compound 0.000949 µM, first compound 0.0949 µM) 8.88% | viability, T/C (second compound 0.000949 µM, first compound 0.3 µM) 4.44% | viability, T/C (second compound 0.003 µM, first compound 0.0949 µM) 10.2% | viability, T/C (second compound 0.003 µM, first compound 0.3 µM) 5.03% | viability, T/C (second compound 0.00949 µM, first compound 0.0949 µM) 8.85% | viability, T/C (second compound 0.00949 µM, first compound 0.3 µM) 4.19% | viability, T/C (second compound 0.03 µM, first compound 0.0949 µM) 8.23% | viability, T/C (second compound 0.03 µM, first compound 0.3 µM) 3.69% | viability, T/C (second compound 0.0949 µM, first compound 0.0949 µM) 6% | viability, T/C (second compound 0.0949 µM, first compound 0.3 µM) 2.81% | viability, T/C (second compound 0.3 µM, first compound 0.03 µM) 8.71% | viability, T/C (second compound 0.3 µM, first compound 0.0949 µM) 5.1% | viability, T/C (second compound 0.3 µM, first compound 0.3 µM) 2.77%
8.68: pIC50 (second compound 0.003 µM)
inactive: viability, T/C (second compound 0.000949 µM, first compound 0.000949 µM) 79.2% | viability, T/C (second compound 0.000949 µM, first compound 0.003 µM) 39.5% | viability, T/C (second compound 0.000949 µM, first compound 0.00949 µM) 25.5% | viability, T/C (second compound 0.000949 µM, first compound 0.03 µM) 14.4% | viability, T/C (second compound 0.003 µM, first compound 0.000949 µM) 80.3% | viability, T/C (second compound 0.003 µM, first compound 0.003 µM) 33.2% | viability, T/C (second compound 0.003 µM, first compound 0.00949 µM) 23.6% | viability, T/C (second compound 0.003 µM, first compound 0.03 µM) 15.5% | viability, T/C (second compound 0.00949 µM, first compound 0.000949 µM) 79% | viability, T/C (second compound 0.00949 µM, first compound 0.003 µM) 38.5% | viability, T/C (second compound 0.00949 µM, first compound 0.00949 µM) 27% | viability, T/C (second compound 0.00949 µM, first compound 0.03 µM) 13.2% | viability, T/C (second compound 0.03 µM, first compound 0.000949 µM) 75.5% | viability, T/C (second compound 0.03 µM, first compound 0.003 µM) 34.5% | viability, T/C (second compound 0.03 µM, first compound 0.00949 µM) 23.8% | viability, T/C (second compound 0.03 µM, first compound 0.03 µM) 13.5% | viability, T/C (second compound 0.0949 µM, first compound 0.000949 µM) 73.3% | viability, T/C (second compound 0.0949 µM, first compound 0.003 µM) 35.2% | viability, T/C (second compound 0.0949 µM, first compound 0.00949 µM) 20.5% | viability, T/C (second compound 0.0949 µM, first compound 0.03 µM) 11.1% | viability, T/C (second compound 0.3 µM, first compound 0.000949 µM) 67.1% | viability, T/C (second compound 0.3 µM, first compound 0.003 µM) 30% | viability, T/C (second compound 0.3 µM, first compound 0.00949 µM) 16.7%
8.69: pIC50 (second compound 0.03 µM)
